The values below come from patent publication US5242937A, “Topically active ocular thiadiazole sulfonamide carbonic anhydrase inhibitors” (Research Corporation Technologies, Inc., priority 1990, dated 1993).

In brackets after ≈: the same amount, converted by molar mass.

The conditions of data set [1]: topical CAI, IOP lowering; cited from earlier work.
Data set [2] relates to intraocular pressure (IOP). Briefly: Ocular hypotensive effects following topical administration (Table 2). The format is in vivo, New Zealand white rabbits. The following applies: IOP lowering; for Maximum Topical Effect: one eye, contralateral eye vehicle. Here is the method: B.2 Ocular Hypotensive Effects Following Topical Administration
IOP was determined using rabbits familiarized with the Alcon pneumotonometric measurement employed. Drugs were dissolved or suspended in 0.9% saline or a 1% hydroxypropylmethyl-cellulose gel and instilled into one eye. The contralateral eye received the vehicle only, thereby serving as a control. Initial screening was accomplished using measurements every 15-30 minutes for 5-6 hours. Statistical analysis wa then performed using Student's t-test for paired data (two-tailed).

Another data set concerns the target carbonic anhydrase II (Homo sapiens, UniProt P00918). Description: Enzyme inhibition, KI versus carbonic anhydrase II (enzymatic micromethod). The format is biochemical. The following applies: 0°. On the procedure: In these examples the general methodology for testing these compounds is as follows. Melting point (M.P.) is assessed using a standard Fisher-Johns apparatus. Quantitative analysis of drug concentrations is carried out using either an enzymatic assay or by high performance liquid chromatography (HPLC). The enzymatic assay is a modification of Maren's micromethod, J. Pharmacol. Exp. Ther., 130:26-29, 1960. Essentially, a reaction volume of 0.8 mL, containing a carbonate/bicarbonate buffer, phenol red, purified carbonic anhydrase, and inhibitor is maintained at 0° degrees and saturation with CO2 by constant bubbling. The time required for acidification to a color change endpoint is monitored as the dependent variable. […] The HPLC analysis is performed using reverse phase chromatography (C18) and gradient elution. At a flow rate of 2mL/min, initial mobile phase composition is 95% A, 5% B, where A is 50 mM phosphate buffer, pH=2, and B is CH3 OH. This composition is altered in a linear fashion over 12 minutes to a final composition of 5:95, A:B, v:v. Capacity factor (k') is determined using the relationship k'=([…] -Vo)/Vo where Ve is the elution volume of the analyte of interest and Vo is the void volume of the column. HPLC analysis using photodiode array UV-visible detection (400-200 nm) is also used to assess purity and acquire spectral information.
(§1) Corneal permeability rate constants (kin) are determined in an in vitro system. Freshly excised bovine corneas are placed on 8 mm tissue culture wells (epithelial surface down) filled with tissue culture medium containing test compound. The well formed by the curvature of the cornea is filled with drug-free medium. Samples of medium are taken from the endothelial side for determination of drug concentrations. The rate constant for drug appearance is kin. Enzyme inhibition is assessed by determination of KI versus carbonic anhydrase II using the enzymatic method. Accession rate is the product of kin and maximum buffer solubility.

Data set [3] is described as follows: Corneal permeability rate constant (kin) across freshly excised bovine corneas in vitro; accession rate. It counts as in vitro ADME. The following applies: for kin (corneal permeability rate constant): excised bovine corneas, in vitro. On the procedure: (§2) In these examples the general methodology for testing these compounds is as follows. Melting point (M.P.) is assessed using a standard Fisher-Johns apparatus. Quantitative analysis of drug concentrations is carried out using either an enzymatic assay or by high performance liquid chromatography (HPLC). The enzymatic assay is a modification of Maren's micromethod, J. Pharmacol. Exp. Ther., 130:26-29, 1960. Essentially, a reaction volume of 0.8 mL, containing a carbonate/bicarbonate buffer, phenol red, purified carbonic anhydrase, and inhibitor is maintained at 0° degrees and saturation with CO2 by constant bubbling. The time required for acidification to a color change endpoint is monitored as the dependent variable. Carbonic anhydrase inhibitors increase reaction time in proportion to their concentrations over a useful range. The HPLC analysis is performed using reverse phase chromatography (C18) and gradient elution. At a flow rate of 2mL/min, initial mobile phase composition is 95% A, 5% B, where A is 50 mM phosphate buffer, pH=2, and B is CH3 OH. This composition is altered in a linear fashion over 12 minutes to a final composition of 5:95, A:B, v:v. Capacity factor (k') is determined using the relationship k'=([…] -Vo)/Vo where Ve is the elution volume of the analyte of interest and Vo is the void volume of the column. HPLC analysis using photodiode array UV-visible detection (400-200 nm) is also used to assess purity and acquire spectral information.
as §1, with “solubility. This is a useful estimate of delivery rate of drug to the anterior chamber of the eye following topical administration.” for “solubility.”

A short description of data set [4]: Solubility in pH=7.4 phosphate buffer (saturated solutions). It counts as physicochemical. The following applies: aqueous buffer. On the procedure:
as §2
Solubility is determined by preparing saturated solutions of test compounds in pH=7.4 phosphate buffer followed by analysis of the solution for compound concentration.

The test system of data set [5] is intraocular pressure (IOP). Description: Ocular hypotensive effects following systemic administration (Table 1). Conditions: subcutaneous, 225 μmol in corn oil, mean (S.D.). The format is in vivo, New Zealand albino rabbits. Here is the method: B.1 Ocular Hypotensive Effects Following systemic Administration
Compounds are dissolved in corn oil and injected subcutaneously into New Zealand albino rabbits. […] Injection time is defined as t=0. […] Values shown are IOP in mm Hg represented as the mean (S.D.) of n replications. Data are analyzed using Student's t-test for unpaired data. For time points marked with asterisks, p<0.05, which is taken to indicate a difference from vehicle treated controls.

Data set [6] in a line: Partition coefficients (PC), organic solvent : pH=7.4 phosphate buffer. The format is physicochemical. Conditions: for PC (CHCl3 : buffer): chloroform : pH=7.4 phosphate buffer; for PC (ether: buffer): diethyl ether : pH=7.4 phosphate buffer. Here is the method:
as §2
Partition coefficients (PC) are determined by dissolving test compound in pH=7.4 phosphate buffer (saturated with the appropriate organic solvent) or organic solvent (diethyl ether or chloroform) saturated with buffer. Equal volumes of organic and aqueous solutions are added to test tubes which are then capped and mixed by inversion until equilibrium is achieved. The ratio of drug concentration organic: aqueous is the partition coefficient.

For data set [7] the following is noted: oral administration; cited from earlier work.

As to `Nc1ccc2nc(S(N)(=O)=O)sc2c1` [aminozolamide], the “effectiveness in clinical trial” value in data set [1] is “partially effective in clinical trial”.

Consider `CCOC(=O)CCCCC(=O)Nc1nnc(S(N)(=O)=O)s1` [Compound 8, ethyladipoylazolamide], for which, in data set [2], the Duration was 2 h, the “Time to Peak effect” value came out at 30 min and the “Maximum Topical Effect” value is “approx. -1.0 mm Hg”.

Regarding `NS(=O)(=O)c1nnc(N2C(=O)C(O)C(O)C2=O)s1` (stereo not drawn) [Example 4, Dihydroxysuccinimidazolamide], on carbonic anhydrase II, the affinity corresponds to a Ki of 8 nM. In addition, in data set [3], the accession rate is at most 21 µM/h and the “kin (corneal permeability rate constant)” value turned out to be 3e-05 h⁻¹. Moreover, in data set [2], the Duration was at least 6 h, the “Time to Peak effect” value stood at 60 min and the “Maximum Topical Effect” value is recorded as -4.0 ± 0.7 mm Hg. Besides, in data set [4], the solubility is above 700 mM.

`CCOC(=O)C(=O)Nc1nnc(S(N)(=O)=O)s1` [Example 5, Ethyloxaloylazolamide]: at carbonic anhydrase II, affinity was put at a Ki of 32 nM. The IOP in data set [5] (t=0 min) was 18.4(1.9) mm Hg; in data set [5] (t=20 min), 17.5(2.1) mm Hg; in data set [5] (t=45 min, * p<0.05 vs vehicle), 15.0(2.6) mm Hg; in data set [5] (t=60 min, * p<0.05 vs vehicle), 14.5(2.2) mm Hg; in data set [5] (t=75 min, * p<0.05 vs vehicle) it was 14.6(5.1) mm Hg; in data set [5] (t=90 min, * p<0.05 vs vehicle), 17.8(1.7) mm Hg. Besides, the IOP in data set [5] (t=110 min, * p<0.05 vs vehicle) is given as 17.3(2.2) mm Hg; in data set [5] (t=150 min, * p<0.05 vs vehicle) it was 18.3(1.3) mm Hg. Moreover, in data set [6], the “PC (CHCl3 : buffer)” value was found to be 0.23. Further, the “PC (ether: buffer)” value in data set [6] came out at 0.3. Further, the accession rate in data set [3] came out at 309 µM/h. In data set [2], this molecule yielded a Duration of at least 5 h. In addition, the “Time to Peak effect” value in data set [2] is on record as 75 min. Further, the “Maximum Topical Effect” value in data set [2] is -3.0 ± 0.7 mm Hg. Also, in data set [4] (unit nm [sic]), the solubility came to 91 mM (≈ 25500 µg/mL).

The molecule `NS(=O)(=O)c1nnc(N2C(=O)C=CC2=O)s1` [Example 3, Maleimidiazolamide] showed a Ki on carbonic anhydrase II of 12 nM. In data set [3], the accession rate worked out at 10.8 µM/h and the “kin (corneal permeability rate constant)” value amounted to 0.0108 h⁻¹. Further, in data set [2], the Duration was 3 h, the “Time to Peak effect” value worked out at 60 min and the “Maximum Topical Effect” value is reported as -2.0 ± 0.5 mm Hg. This molecule showed a solubility in data set [4] of 1 mM (≈ 260 µg/mL).

Take `NS(=O)(=O)c1nnc(N2C(=O)CCC2=O)s1` [Example 2, Succinylimidazolamide]: in data set [3], the accession rate worked out at 21 µM/h and the “kin (corneal permeability rate constant)” value came out at 0.0021 h⁻¹. In addition, in data set [2], the Duration was found to be 2 h, the “Time to Peak effect” value came to 30 min and the “Maximum Topical Effect” value is recorded as -2.3 ± 1.7 mm Hg. This molecule showed a solubility in data set [4] of 10 mM (≈ 2620 µg/mL).

Regarding `CC(=O)Nc1nnc(S(N)(=O)=O)s1` [acetazolamide, 2-acetylamino-1,3,4-thiadiazole-5-sulfonamide], the “decrease of IOP” value in data set [7] is given as “shown to decrease IOP following oral administration”.

On to `CCOC(=O)CCC(=O)Nc1nnc(S(N)(=O)=O)s1` [Example 6, Ethylsuccinylazolamide], for which the IOP in data set [5] (t=0 min) was 18.3(1.0) mm Hg; in data set [5] (t=20 min), 17.5(2.0) mm Hg; in data set [5] (t=45 min, * p<0.05 vs vehicle) it was 15.4(2.1) mm Hg; in data set [5] (t=60 min, * p<0.05 vs vehicle), 13.7(1.6) mm Hg; in data set [5] (t=75 min, * p<0.05 vs vehicle), 12.4(1.9) mm Hg; in data set [5] (t=90 min, * p<0.05 vs vehicle) it was 15.1(2.0) mm Hg. Also, the IOP in data set [5] (t=110 min, * p<0.05 vs vehicle) was 15.0(1.8) mm Hg; in data set [5] (t=150 min, * p<0.05 vs vehicle), 16.6(1.6) mm Hg. Also, in data set [6], the “PC (CHCl3 : buffer)” value stood at 1.24. Moreover, the “PC (ether: buffer)” value in data set [6] turned out to be 0.35. In data set [3], this molecule showed an accession rate of 91 µM/h. Further, the “kin (corneal permeability rate constant)” value in data set [3] is 0.0155 h⁻¹. This molecule also returned a solubility in data set [4] of 5.8 mM (≈ 1790 µg/mL).

For the molecule `NS(=O)(=O)c1nnc(NC(=O)CCCCC(=O)O)s1` [Example 8], the concentration in solution in data set [4] (solubility) came to 0.5 mM (≈ 154 µg/mL).

On carbonic anhydrase II (unit inferred), `CCOC(=O)CCCCC(=O)Nc1nnc(S(N)(=O)=O)s1` [Example 7] registered a Ki of 60 nM. Also, the “PC (CHCl3 : buffer)” value in data set [6] is recorded as 3.03. In data set [3], the accession rate was found to be 26 µM/h and the “kin (corneal permeability rate constant)” value stood at 0.0512 h⁻¹. In data set [4], this molecule came in with a solubility of 0.2 mM (≈ 67.3 µg/mL).
